# Assay results reported in US8563717B2, “Adenine derivatives” (GlaxoSmithKline LLC, priority 2008, dated 2013).
# Where a name gives a salt, the structure may show the parent alone.
# Test system: Interferon-α
# Experiment: Induction of Interferon-α using cryopreserved human PBMCs
# Format: cell-based
# Conditions: PBMC, 24 h incubation, normalised to 1 uM resiquimod, read-out: mean pEC50 for induction of IFN-α (converted)
# Protocol: Assay for the Induction of Interferon-α Using Cryopreserved Human Peripheral Blood Mononuclear Cells (PBMCs)
# Compounds were dissolved in DMSO. Serial 2-fold dilutions with DMSO were prepared and 0.25 μl dispensed into 384-well clear Greiner polypropylene plates.
# Blood samples of up to 200 ml were obtained from healthy human donors. Whole blood in 25 ml volumes was overlaid onto 15 ml Ficoll gradients in Leucosep tubes, and centrifuged at 1000 g for 20 min. Cells in the band at the plasma/histopaque interface were carefully removed and washed twice with PBS (centrifuged at 400 g for 5 min to harvest). The final pellet was resuspended in freezing medium (90% Heat-inactivated serum, 10% DMSO) to a cell concentration of 4×10^7 cells/ml. The resuspended cells were then cryopreserved (frozen) using a rate controlled freezer, and stored at −140° C. for up to 4 months.
# Immediately prior to assay, vials of cryopreserved (frozen) PBMCs were thawed rapidly in a water bath at 37° C. A 1:10 dilution of the cells in trypan blue was prepared and counted. The PBMCs were then diluted in growth media [RPMI 1640 containing 10% fetal calf serum (invitrogen), Penicillin+[…] (Gibco cat. #25030-024, 1:50), L-Glutamine 2 mM, and 1000 units/ml recombinant human IFN-gamma (Preprotech catalogue #300-02)] to a density of 1×10^6 cells/ml, and 50 ul/well dispensed to 384-well clear Greiner polypropylene plates containing 0.25 μl DMSO or test compound in 0.25 μl DMSO. […] Plates were incubated for 24 h at 37° C. in 5% CO2.
# A multi-isoform immunoassay was used to quantify IFN-α in PBMC supernatants. Rabbit polyclonal antibody against human IFN-α (catalogue number 31101, Stratech Scientific) was diluted 1:10000 in assay buffer (RPMI 1640 containing 10% fetal calf serum, Invitrogen) and 20 μl was added to each well of an MSD (Meso-Scale Discovery) single small-spot 384-well GAR (goat anti-rabbit antibody coated) plate. The plate was incubated for 1 hour at room temperature with vigorous shaking. Following three washes with PBS, 20 μl of cell supernatant were added to each well of the plate. The plate was then incubated for 1 hour at room temperature with vigorous shaking. A pair of monoclonal antibodies to IFN-α (catalogue numbers 21100 and 21112, Stratech Scientific) were labelled with sulfo-TAG (MSD), diluted 1:1000 in assay buffer and 20 μl added to each well of the plate. The plate was further incubated for 1 hour at room temperature with vigorous shaking. Following three washes with PBS, 30 μl of x2 T buffer (MSD) was added to each well and the plate was read on an MSD Sector 6000 plate reader.
# Data were normalised to internal plate controls of 1 uM resiquimod (n=16) and DMSO (n=16). pEC50 values were derived by 4-parameter curve fit with IRLS in ActivityBase, from 11-point, two-fold serial dilution of test compounds.
row,Structure (SMILES),EC50
1,"CCCCNc1nc(N)c2[nH]c(=O)n(CC3CCCN(CC)C3)c2n1 (stereo not shown) [Example 2, 6-Amino-2-(butylamino)-9-[(1-ethyl-3-piperidinyl)methyl]-7,9-dihydro-8H-purin-8-one]",< 1580 nM
2,"CCCCOc1nc(N)c2[nH]c(=O)n(CC3CCNCC3)c2n1 [Example 3, hydrochloride]",< 1580 nM
3,"CCCCOc1nc(N)c2[nH]c(=O)n(CC3CCCNC3)c2n1 (stereo not shown) [Example 4, hydrochloride]",< 1580 nM
4,"CCCCOc1nc(N)c2[nH]c(=O)n(CCC3CCNCC3)c2n1 [Example 6, hydrochloride]",< 1580 nM
5,"CCCCOc1nc(N)c2[nH]c(=O)n(CCC3CCCCN3)c2n1 (stereo not shown) [Example 11, 6-Amino-2-(butyloxy)-9-[2-(2-piperidinyl)ethyl]-7,9-dihydro-8H-burin-8-one]",< 1580 nM
6,"CCCCOc1nc(N)c2[nH]c(=O)n(CCC3CCCCN3CC)c2n1 (stereo not shown) [Example 12, 6-Amino-2-(butyloxy)-9-[2-(1-ethyl-2-piperidinyl)ethyl]-7,9-dihydro-8H-purin-8-one]",< 1580 nM
7,"CCCCOc1nc(N)c2[nH]c(=O)n(CCCC3CCCCN3)c2n1 (stereo not shown) [Example 13, 6-Amino-2-(butyloxy)-9-[3-(2-piperidinyl)propyl]-7,9-dihydro-8H-purin-8-one]",< 1580 nM
8,"CCCCOc1nc(N)c2[nH]c(=O)n(CCCC3CCCCN3CC)c2n1 (stereo not shown) [Example 14, 6-Amino-2-(butyloxy)-9-[3-(1-ethyl-2-piperidinyl)propyl]-7,9-dihydro-8H-purin-8-one]",< 1580 nM
9,"CCCCOc1nc(N)c2[nH]c(=O)n(CCCC3CCCCN3CCC)c2n1 (stereo not shown) [Example 15, 6-Amino-2-(butyloxy)-9-[3-(1-propyl-2-piperidinyl)propyl]-7,9-dihydro-8H-purin-8-one]",< 1580 nM
10,"CCCCOc1nc(N)c2[nH]c(=O)n(CCCC3CCCCN3C(C)C)c2n1 (stereo not shown) [Example 16, 6-Amino-2-(butyloxy)-9-{3-[1-(1-methylethyl)-2-piperidinyl]propyl}-7,9-dihydro-8H-purin-8-one]",< 1580 nM
11,"CCCCOc1nc(N)c2[nH]c(=O)n(CCCC3CCCCN3CCCC)c2n1 (stereo not shown) [Example 17, 6-Amino-2-(butyloxy)-9-[3-(1-butyl-2-piperidinyl)propyl]-7,9-dihydro-8H-purin-8-one]",< 1580 nM
12,"CCCCOc1nc(N)c2[nH]c(=O)n(CCCC3CCCCN3CCC(C)C)c2n1 (stereo not shown) [Example 19, 6-Amino-2-(butyloxy)-9-{3-[1-(3-methylbutyl)-2-piperidinyl]propyl}-7,9-dihydro-8H-purin-8-one]",< 1580 nM
13,"CCCCOc1nc(N)c2[nH]c(=O)n(CCCC3CCCCN3C3CCCC3)c2n1 (stereo not shown) [Example 20, 6-Amino-2-(butyloxy)-9-[3-(1-cyclopentyl-2-piperidinyl)propyl]-7,9-dihydro-8H-purin-8-one]",< 1580 nM
14,"CCCCOc1nc(N)c2[nH]c(=O)n(CCCC3CCCCN3CC3CCCC3)c2n1 (stereo not shown) [Example 21, 6-Amino-2-(butyloxy)-9-{3-[1-(cyclopentylmethyl)-2-piperidinyl]propyl}-7,9-dihydro-8H-purin-8-one]",< 1580 nM
15,"CCCCOc1nc(N)c2[nH]c(=O)n(CCCC3CCCCN3CCC3CCCCC3)c2n1 (stereo not shown) [Example 22, 6-Amino-2-(butyloxy)-9-{3-[1-(2-cyclohexylethyl)-2-piperidinyl]propyl}-7,9-dihydro-8H-purin-8-one]",< 1580 nM
16,"CCCCOc1nc(N)c2[nH]c(=O)n(CC3CCCN(CCCC)C3)c2n1 (stereo not shown) [Example 25, 6-Amino-2-(butyloxy)-9-[(1-butyl-3-piperidinyl)methyl]-7,9-dihydro-8H-purin-8-one]",< 1580 nM
17,"CCCCOc1nc(N)c2[nH]c(=O)n(CC3CCCN(CC(C)C)C3)c2n1 (stereo not shown) [Example 26, 6-Amino-2-(butyloxy)-9-{[1-(2-methylpropyl)-3-piperidinyl]methyl}-7,9-dihydro-8H-purin-8-one]",< 1580 nM

row,Structure (SMILES),EC50
1,"CCCCOc1nc(N)c2[nH]c(=O)n(CC3CCCN(CCC(C)C)C3)c2n1 (stereo not shown) [Example 27, 6-Amino-2-(butyloxy)-9-{[1-(3-methylbutyl)-3-piperidinyl]methyl}-7,9-dihydro-8H-purin-8-one]",< 1580 nM
2,"CCCCOc1nc(N)c2[nH]c(=O)n(CC3CCCN(C4CCCC4)C3)c2n1 (stereo not shown) [Example 28, 6-Amino-2-(butyloxy)-9-[(1-cyclopentyl-3-piperidinyl)methyl]-7,9-dihydro-8H-purin-8-one hydrochloride]",< 1580 nM
3,"CCCCOc1nc(N)c2[nH]c(=O)n(CCC3CCCN(CCC)C3)c2n1 (stereo not shown) [Example 31, 6-Amino-2-(butyloxy)-9-[2-(1-propyl-3-piperidinyl)ethyl]-7,9-dihydro-8H-purin-8-one]",< 1580 nM
4,"CCCCOc1nc(N)c2[nH]c(=O)n(CCC3CCCN(CCCC)C3)c2n1 (stereo not shown) [Example 33, 6-Amino-2-(butyloxy)-9-[2-(1-butyl-3-piperidinyl)ethyl]-7,9-dihydro-8H-purin-8-one]",< 1580 nM
5,"CCCCOc1nc(N)c2[nH]c(=O)n(CCC3CCCN(CC(C)C)C3)c2n1 (stereo not shown) [Example 34, 6-Amino-2-(butyloxy)-9-{2-[1-(2-methylpropyl)-3-piperidinyl]ethyl}-7,9-dihydro-8H-purin-8-one]",< 1580 nM
6,"CCCCOc1nc(N)c2[nH]c(=O)n(CCC3CCCN(C(CC)CC)C3)c2n1 (stereo not shown) [Example 35, 6-Amino-2-(butyloxy)-9-{2-[1-(1-ethylpropyl)-3-piperidinyl]ethyl}-7,9-dihydro-8H-purin-8-one]",< 1580 nM
7,"CCCCOc1nc(N)c2[nH]c(=O)n(CCC3CCCN(C4CCCC4)C3)c2n1 (stereo not shown) [Example 36, 6-Amino-2-(butyloxy)-9-[2-(1-cyclopentyl-3-piperidinyl)ethyl]-7,9-dihydro-8H-purin-8-one]",< 1580 nM
8,"CCCCOc1nc(N)c2[nH]c(=O)n(CCC3CCCN(CC4CCCC4)C3)c2n1 (stereo not shown) [Example 37, 6-Amino-2-(butyloxy)-9-{2-[1-(cyclopentylmethyl)-3-piperidinyl]ethyl}-7,9-dihydro-8H-purin-8-one]",< 1580 nM
9,"CCCCOc1nc(N)c2[nH]c(=O)n(CCC3CCCN(CCC4CCCCC4)C3)c2n1 (stereo not shown) [Example 39, 6-Amino-2-(butyloxy)-9-{2-[1-(2-cyclohexylethyl)-3-piperidinyl]ethyl}-7,9-dihydro-8H-purin-8-one]",< 1580 nM
10,"CCC[C@H](C)Oc1nc(N)c2[nH]c(=O)n(CCC3CCCNC3)c2n1 (stereo partly drawn) [Example 40, 6-Amino-2-{[(1S)-1-methylbutyl]oxy}-9-[2-(3-piperidinyl)ethyl]-7,9-dihydro-8H-purin-8-one]",< 1580 nM
11,"CCCCOc1nc(N)c2[nH]c(=O)n(CCCC3CCCNC3)c2n1 (stereo not shown) [Example 43, 6-Amino-2-(butyloxy)-9-[3-(3-piperidinyl)propyl]-7,9-dihydro-8H-purin-8-one]",< 1580 nM
12,"CCCCOc1nc(N)c2[nH]c(=O)n(CCCC3CCCN(CC)C3)c2n1 (stereo not shown) [Example 44, 6-Amino-2-(butyloxy)-9-[3-(1-ethyl-3-piperidinyl)propyl]-7,9-dihydro-8H-purin-8-one]",< 1580 nM
13,"CCCCOc1nc(N)c2[nH]c(=O)n(CCCC3CCCN(CCC)C3)c2n1 (stereo not shown) [Example 45, 6-Amino-2-(butyloxy)-9-[3-(1-propyl-3-piperidinyl)propyl]-7,9-dihydro-8H-purin-8-one]",< 1580 nM
14,"CCCCOc1nc(N)c2[nH]c(=O)n(CCCC3CCCN(C(C)C)C3)c2n1 (stereo not shown) [Example 46, 6-Amino-2-(butyloxy)-9-{3-[1-(1-methylethyl)-3-piperidinyl]propyl}-7,9-dihydro-8H-purin-8-one]",< 1580 nM
15,"CCCCOc1nc(N)c2[nH]c(=O)n(CCCC3CCCN(CCCC)C3)c2n1 (stereo not shown) [Example 47, 6-Amino-2-(butyloxy)-9-[3-(1-butyl-3-piperidinyl)propyl]-7,9-dihydro-8H-purin-8-one]",< 1580 nM
16,"CCCCOc1nc(N)c2[nH]c(=O)n(CCCC3CCCN(CC(C)C)C3)c2n1 (stereo not shown) [Example 48, 6-Amino-2-(butyloxy)-9-{3-[1-(2-methylpropyl)-3-piperidinyl]propyl}-7,9-dihydro-8H-purin-8-one hydrochloride]",< 1580 nM
17,"CCCCOc1nc(N)c2[nH]c(=O)n(CCCC3CCCN(CCC(C)C)C3)c2n1 (stereo not shown) [Example 49, 6-Amino-2-(butyloxy)-9-{3-[1-(3-methylbutyl)-3-piperidinyl]propyl}-7,9-dihydro-8H-purin-8-one]",< 1580 nM
